Tested on: C6 glial cells
Test: Ca2+ mobilization in GDNF peptide-treated C6 glial cells (Calcium Crimson-AM fluorescence)
Type: cell-based
Settings: for change in Ca2+ mobilization relative to control samples: external Ca2+ containing buffer, FIG. 6; for change in Ca2+ mobilization relative to control samples / change in fluorescence relative to the control sample: peptide 1 7.0 μM, peptide 2 2.3 μM, peptide 3 0.8 μM; for change in fluorescence relative to the control sample: external Ca2+ free buffer, FIG. 5
Experimental: We evaluated the ability of the GDNF peptides to activate G-protein associated transmembrane receptors. C6 glial cells were incubated with GDNF peptides, either singly or in combination, and calcium mobilization was monitored as a index of receptor activation.
GDNF peptides were custom synthesized via automated solid-phase methods using FMOC chemistry, HPLC purified, and characterized at the Small Peptide Synthesis Resource of the KECK Facility at Yale University. C6 glial cells were cultured to 80% confluency in the presence of GDNF peptides and loaded with the Ca^2+-sensitive fluorescent indicator dye, Calcium Crimson-AM (5 μM dye in Me2SO) at 37° C. for 20 min. Approximately 10^3 cells were then transferred into a quartz cuvette and the change in intracellular fluorescence was monitored in real time using an ISI Fluorescence spectrophotometer with an excitation wavelength of 590 nm. Emissions were monitored at 615 nm. An increase in fluorescence units was indicative of a rise in internal calcium.
C6 glial cells were cultured as above and incubated in increasing concentrations (0.8 μM; 1.6 μM; 2.4 μM; 3.2 μM and 4.0 μM) of GDNF-derived peptide (FPLPA (SEQ ID NO:4)). Fluorescence was measured according to the method in Example 3.
C6 glial cells were cultured as above and incubated in increasing concentrations (7.0 μM; 14 μM; 21 μM; 28 μM and 35 μM) of GDNF-derived peptide (PPEAPAEDRSL (SEQ ID NO:5)). Fluorescence was measured according to the method in Example 3.
C6 glial cells were cultured as above except that no Ca^2+ was present in the media. Cells were incubated with GDNF-derived peptides according to the experimental design indicated in Table 2 and the combinations in FIG. 5. Fluorescence was measured according to the method in Example 3.
C6 glial cells were cultured according to the method in Example 3. Cells were incubated with GDNF-derived peptides according to the experimental design indicated in Table 2 and the combinations in FIG. 6. Fluorescence was measured according to the method in Example 3.

| Substance | change in Ca2+ mobilization relative to control samples | change in fluorescence relative to the control sample | Ca2+ mobilization (fluorescence), dose response (FPLPA at 0.8, 1.6, 2.4, 3.2 and 4.0 μM, FIG. 3) | Ca2+ mobilization (fluorescence), dose response (PPEAPAEDRSL at 7.0, 14, 21, 28 and 35 μM, FIG. 4) |
| --- | --- | --- | --- | --- |
| ERNRQAAAANPENSRGK (listed as Homo sapiens) [GDNF-derived peptide, 17-mer] | decrease in Ca^2+ mobilization | moderate increases |  |  |
| FPLPA (listed as Homo sapiens) [GDNF-derived peptide, 5-mer] | decrease in Ca^2+ mobilization | moderate increases | dose-dependent increase in Ca^2+ mobilization at peptide concentrations up to 3.2 μM, followed by a decrease at 4.0 μM |  |
| PPEAPAEDRSL (listed as Homo sapiens) [GDNF-derived peptide, 11-mer] | increase in Ca^2+ mobilization | moderate increases |  | dose-dependent increase in Ca^2+ mobilization |
